Test results as given in patent US20200079786A1, “ANALOGS OF […] AS SOLUBLE EPOXIDE HYDROLASE INHIBITORS” (UNIVERSITAT DE BARCELONA, priority 2015, published 2020).

Columns and labels:
[1] = Parallel artificial membrane permeation assay for blood-brain barrier (PAMPA-BBB); format: in vitro ADME, porcine; conditions: PBS:EtOH (70:30)
Experimental: The in vitro permeability (Pe) of the test compounds through lipid extract of porcine brain membrane was determined. Assayed compounds were tested using a mixture of PBS:EtOH (70:30). […] From this equation and taking into account the limits established by Di et al. for BBB permeation, the ranges of permeability were established, as follows.

CYP1A2 = biological target: T1, CYP1A2 (Homo sapiens, UniProt P05177); experiment: Inhibition of human cytochrome P450 CYP1A2; format: in vitro ADME; conditions: human cytochrome P450 enzyme
T1 sequence (P05177 1-516): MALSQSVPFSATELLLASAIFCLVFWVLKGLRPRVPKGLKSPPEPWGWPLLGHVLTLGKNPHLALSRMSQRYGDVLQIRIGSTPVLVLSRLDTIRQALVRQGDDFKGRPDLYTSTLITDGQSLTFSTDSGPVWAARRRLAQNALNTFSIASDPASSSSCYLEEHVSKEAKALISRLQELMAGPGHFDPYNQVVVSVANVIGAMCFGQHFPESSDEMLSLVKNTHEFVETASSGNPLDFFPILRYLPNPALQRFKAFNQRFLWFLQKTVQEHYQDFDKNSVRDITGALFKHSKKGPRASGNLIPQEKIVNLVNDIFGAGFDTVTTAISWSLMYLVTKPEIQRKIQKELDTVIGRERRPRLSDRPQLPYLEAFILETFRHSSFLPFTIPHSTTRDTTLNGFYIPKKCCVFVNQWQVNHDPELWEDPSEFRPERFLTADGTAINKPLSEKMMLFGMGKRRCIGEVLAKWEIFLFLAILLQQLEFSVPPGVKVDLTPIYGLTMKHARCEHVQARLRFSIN
Text: (§1) The epoxidation of arachidonic acid (AA) by selected cytochrome P450 epoxygenases generates epoxyeicosatrienoic acids (EETs). These EETs show anti-inflammatory, antihypertensive, analgesic, angiogenic, and antiatherosclerotic effects in rodents and humans. sEH converts EETs to their corresponding dihydroxyeicosatrienoic acids (DHETs), whereby the biological effects of EETs are diminished, eliminated, or altered. Among the P450 enzymes, it is known that CYP2C19 and CYP1A2 have the highest formation rate of EETs from AA (cf. A. A. El-Sherbeni et al. “Repurposing resveratrol and fluconazole to modulate human cytrochrome P450-mediated arachidonic acid metabolites”, Molecular Pharmaceutics 2016, vol. 13, pp. 1278-1288). For this reason, a highly desirable aspect of any new sEH inhibitor is selectivity in front of CYP2C19 and CYP1A2.

CYP2C19 = CYP2C19 (Homo sapiens, UniProt P33261); experiment: Inhibition of human cytochrome P450 CYP2C19; format: in vitro ADME; conditions: human cytochrome P450 enzyme
Text: as §1

sEH in AR42j cells = biological target: T2, sEH in AR42j cells (Rattus norvegicus, UniProt P80299); experiment: In vitro determination of sEH inhibition activity in AR42j cells (cell-based fluorescent assay); conditions: AR-42J, read-out: % Inhn. ± SE (100 μM), sEH inhibition activity in cell culture
T2 sequence (P80299 1-554): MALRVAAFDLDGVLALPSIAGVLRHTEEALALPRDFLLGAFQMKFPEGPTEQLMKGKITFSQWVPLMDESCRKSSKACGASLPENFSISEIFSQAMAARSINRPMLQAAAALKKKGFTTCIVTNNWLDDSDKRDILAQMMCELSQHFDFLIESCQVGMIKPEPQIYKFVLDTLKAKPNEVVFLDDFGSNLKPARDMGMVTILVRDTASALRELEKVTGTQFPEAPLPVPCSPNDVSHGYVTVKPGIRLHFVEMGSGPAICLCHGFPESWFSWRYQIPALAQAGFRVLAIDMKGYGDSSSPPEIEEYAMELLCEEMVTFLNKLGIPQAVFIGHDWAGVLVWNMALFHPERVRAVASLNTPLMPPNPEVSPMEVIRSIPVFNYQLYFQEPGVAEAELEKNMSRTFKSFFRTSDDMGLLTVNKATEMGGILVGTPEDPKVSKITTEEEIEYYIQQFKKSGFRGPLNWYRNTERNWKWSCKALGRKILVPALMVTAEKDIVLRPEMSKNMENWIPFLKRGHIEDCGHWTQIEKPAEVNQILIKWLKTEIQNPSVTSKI
Experimental: Solutions Preparation: • Assay buffer 1×: add 10 mL of the CBA-Buffer (10×) to 90 mL of distilled water. • Lysis Buffer: add 50 μL of the CBA Digitonin Solution to 10 mL of Buffer Assay 1×. • Substrate Solution: dilute 10 μL of CBA sEH Substrate with 10 mL of Assay Buffer 1×. • Standards: preparation of 7 concentrations of CBA 6-methoxy-2-naphtalaldehyde from 0 until 2 M with Assay Buffer 1×. • sEH Positive Control: Prepare another stock A (1 μg/ml: 1 μL CBA sEH Positive Control+1 mL Assay Buffer 1×). From the already prepared stock A, prepare 250 μL of sEH (10 ng/mL): 2.5 μL sEH stock A+250 μL Assay Buffer 1×). • sEH Inhibitor AUDA: dilute 10 μL CBA sEH Inhibitor with 500 ml Assay Buffer 1×. • Inhibitors dissolved in DMSO at appropriated concentrations.
Seed cells in a 96-well plate at a density of (2×10^4)-(5×10^4) cells/well in 100 μL of culture medium with or without compounds to be tested. Incubation of the cells in a CO2 incubator at 37° C. for 48 hours. Aspirate the culture medium and add 200 μL of Assay Buffer 1× to each well. Centrifuge the plate at 800 rmp for 5 minutes. Aspirate the supernatant and add 100 μL of Lysis Buffer to each well. Incubate with gentle shaking on an orbital shaker for 30 minutes at room temperature. Centrifuge the plate at 3000 rpm for 20 minutes at 4° C. Transfer 90 μL of the supernatants to the 96-Well Solid Plate (black). Add 10 μL Assay Buffer 1× or 10 μL of the AUDA solution to appropriate wells. For positive control wells, add 100 μL of the 10 ng/mL sEH Positive Control to two wells. Add 200 μL of 6-methoxy-2-Naphthaldehyde Standards to corresponding wells of the black plate. Add 100 μL of the sEH Substrate Solution to each well, except the standards. Incubate the plate at 37° C. for 30 minutes. […] The intensity of fluorescence was used to analyze and calculate inhibition percentages, shown in the Table as average of minimum three independent replicates.

Sequence of CYP2C19 (P33261 whole entry): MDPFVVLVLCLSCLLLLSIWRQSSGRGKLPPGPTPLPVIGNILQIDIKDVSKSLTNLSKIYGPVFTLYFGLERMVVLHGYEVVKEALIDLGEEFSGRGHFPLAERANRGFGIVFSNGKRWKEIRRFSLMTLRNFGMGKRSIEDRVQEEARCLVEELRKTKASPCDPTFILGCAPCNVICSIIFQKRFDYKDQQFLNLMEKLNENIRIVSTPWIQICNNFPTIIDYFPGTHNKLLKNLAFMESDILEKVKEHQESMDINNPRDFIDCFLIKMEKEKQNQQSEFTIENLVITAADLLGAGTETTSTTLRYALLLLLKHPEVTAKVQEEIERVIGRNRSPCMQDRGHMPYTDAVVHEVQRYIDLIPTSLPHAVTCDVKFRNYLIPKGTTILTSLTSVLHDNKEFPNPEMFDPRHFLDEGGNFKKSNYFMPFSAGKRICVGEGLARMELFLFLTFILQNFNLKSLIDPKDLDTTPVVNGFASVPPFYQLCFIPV

O=C(N[C@]12CC3C[C@@H](C[C@H](C3)O1)C2)N[C@H]1CC[C@H](Oc2ccc(C(=O)O)cc2)CC1 [Ig, trans-1-(2-oxaadamantan-1-yl)-3-[4-(4-carboxyphenoxy)cyclohexyl]urea]
CNS prediction [1]: CNS+ (Compounds of high BBB permeation (CNS+): Pe (10^6 cm s^−1)>5.181) | inhibition at 1 µM (CYP1A2): ≤ 6% | inhibition at 1 µM (CYP2C19): ≤ 6% | inhibition at 100 µM (sEH in AR42j cells): 58.3 ± 3.2%
